From patent US20080161188A1, “HERBICIDAL COMPOSITIONS AND METHODS OF CONTROLLING WEED GROWTH” (priority 2006, published 2008)

System: turf (perennial rye grass, fescue, crabgrass, and several unidentified broad-leaf weeds)
Assay: Field test plots: rate of control of turf by ready to use glyphosate composition with fatty acid additive
Type: in vivo
Conditions: versus the same compositions without (water control) short chain fatty acid
Description: This composition included all of the water necessary to apply for weed control and was not further diluted.
The test plots included several species including perennial rye grass, fescue, crabgrass, and several unidentified broad-leaf weeds. As this is a non-selective test, all growing plants (monocot and broadleaf) were evaluated as one species referred to as “turf.” Test plots were 4-ft by 60 ft rectangles with untreated check plots to either side. Evaluations were made at 3 days, 7 days and 14 days by visually inspecting each plot comparing health and vigor of turf (color and mortality) to adjacent untreated controls.

CC(O)C(=O)O (stereo not shown) [Lactic acid, lactic acid]
enhancing the rate of weed control in herbicide compositions: particularly effective
